Results from patent US20150254433A1, “Methods and Models for Determining Likelihood of Cancer Drug Treatment Success Utilizing Predictor Biomarkers, and Methods of Diagnosing and Treating Cancer Using the Biomarkers” (priority 2014, published 2015).

Test system: breast cancer cell lines
Assay: Drug response (GI50, 50% reduction in proliferation) of breast cancer cell lines in culture
Assay type: cell-based
Settings: comparison of sensitivity ranges across cell lines
Text: Recently, large datasets describing the effects of various drugs on the growth of cancer cells in culture have been generated for the purpose of accelerating the preclinical evaluation of new compounds. One of largest datasets with respect to the number of drugs and breast cancer cell lines describes the effects of ninety (90) different drugs on seventy (70) different breast cancer cell lines. The dataset includes measurements of the concentration of each drug that causes a 50% reduction in the proliferation of cells in culture (i.e., GI50). […] Acquired resistance to chemotherapeutics or targeted agents is recognized and is being studied intensively. […] There appears to be a relatively large amount of intrinsic variability in the responses to drugs by these tumor-derived cell lines. These intrinsic differences in sensitivity, if replicated in breast tumors, could explain some of the variability in responses of tumors to chemotherapeutic drugs or targeted agents.
Another dataset that is statistically analyzed using lasso regression (e.g., a least absolute shrinkage and selection operator [i.e., lasso] regression model) includes responses of the cancer cell lines to various cancer treatment drugs (e.g., 5, 10, 20, 30, 40, 50 or more drugs). In one example described herein, the datasets include responses from approximately 90 drugs on 70 different breast cancer cell lines. As mentioned elsewhere herein, the drug response data are determined by measuring the concentration of drugs or compounds that causes a 50% reduction (e.g., GI50 or IC50 data) in the proliferation of the cells in culture.
Sensitivity is the negative base ten logarithm of the 50% growth inhibition concentration. In the RPPA dataset, which has the most cell lines, the HER2 overexpressing lines are clearly separated from the others. This difference was used to define HER2 overexpression (e.g., represented by open circles), and the same definition of overexpression versus normal expression is used in the other protein datasets and in other Figures herein. For the glycoprotein and MRM datasets, the base ten logarithms are given on the horizontal axes. The quantitative relationships between HER2 expression levels and drug sensitivities in FIG. 2 are shown in scatterplots, in which each point corresponds to a particular cell line. The protein datasets all include cell lines that overexpress HER2. These cell lines are generally clustered on the right sides of the plots as separate groups.

SMILES | range of observed drug sensitivities, in words, relative to another drug
CC(=O)O[C@@]12CO[C@@H]1C[C@H](O)[C@@]1(C)C(=O)[C@H](O)C3=C(C)[C@@H](OC(=O)[C@H](O)[C@@H](NC(=O)OC(C)(C)C)c4ccccc4)C[C@@](O)([C@@H](OC(=O)c4ccccc4)[C@H]21)C3(C)C [docetaxel] | much smaller range than the sensitivity of the cell lines to rapamycin
CC(=O)O[C@H]1C(=O)[C@@]2(C)[C@H]([C@H](OC(=O)c3ccccc3)[C@]3(O)C[C@H](OC(=O)[C@H](O)[C@@H](NC(=O)c4ccccc4)c4ccccc4)C(C)=C1C3(C)C)[C@]1(OC(C)=O)CO[C@@H]1C[C@@H]2O [paclitaxel] | much smaller range than the sensitivity of the cell lines to rapamycin
O=c1[nH]c2ccccc2n1C1CCN(Cc2ccc(-c3nc4cc5[nH]cnc5cc4nc3-c3ccccc3)cc2)CC1 [Sigma AKT1,2 inhibitor] | significantly lower

Same assay, conditions: sensitivity = negative base ten logarithm of the 50% growth inhibition concentration; difference between most and least sensitive cell lines

SMILES | range over which the cell lines varied in sensitivity to the drug
CO[C@H]1C[C@@H]2CC[C@@H](C)[C@@](O)(O2)C(=O)C(=O)N2CCCC[C@H]2C(=O)O[C@H]([C@H](C)C[C@@H]2CC[C@@H](OCCO)[C@H](OC)C2)CC(=O)[C@H](C)/C=C(\C)[C@@H](O)[C@@H](OC)C(=O)[C@H](C)C[C@H](C)/C=C/C=C/C=C/1C [everolimus] | 3.3 orders of magnitude
Nc1ccn([C@@H]2O[C@H](CO)[C@@H](O)C2(F)F)c(=O)n1 [gemcitabine] | approximately four
CO[C@H]1C[C@@H]2CC[C@@H](C)[C@@](O)(O2)C(=O)C(=O)N2CCCC[C@H]2C(=O)O[C@H]([C@H](C)C[C@@H]2CC[C@@H](OC(=O)C(C)(CO)CO)[C@H](OC)C2)CC(=O)[C@H](C)/C=C(\C)[C@@H](O)[C@@H](OC)C(=O)[C@H](C)C[C@H](C)/C=C/C=C/C=C/1C [temsirolimus] | 3.7 orders of magnitude
CCC1=C[C@@H]2CN(C1)Cc1c([nH]c3ccccc13)[C@@](C(=O)OC)(c1cc3c(cc1OC)N(C)[C@H]1[C@@](O)(C(=O)OC)[C@H](OC(C)=O)[C@]4(CC)C=CCN5CC[C@]31[C@@H]54)C2 [vinorelbine] | approximately four
CO[C@H]1C[C@@H]2CC[C@@H](C)[C@@](O)(O2)C(=O)C(=O)N2CCCC[C@H]2C(=O)O[C@H]([C@H](C)C[C@@H]2CC[C@@H](O)[C@H](OC)C2)CC(=O)[C@H](C)/C=C(\C)[C@@H](O)[C@@H](OC)C(=O)[C@H](C)C[C@H](C)/C=C/C=C/C=C/1C [rapamycin] | 4.6 orders of magnitude

Test system: breast cancer cell lines
Assay: not given
Settings: FIG. 2; HER2 over-expressing versus other breast cancer cell lines; cited from earlier work

SMILES | drug sensitivity of HER2 over-expressing cell lines
CS(=O)(=O)CCNCc1ccc(-c2ccc3ncnc(Nc4ccc(OCc5cccc(F)c5)c(Cl)c4)c3c2)o1 [lapatinib] | comparatively high drug sensitivity
